Reference: patent US20090298834A1, “4-(AMINOMETHYL)CYCLOHEXANAMINE DERIVATIVES AS CALCIUM CHANNEL BLOCKERS” (priority 2008, published 2009)

Key:
[1] = target: T1, human α1G T-type channels (Homo sapiens, UniProt O43497); experiment: T-type calcium channel block, whole cell patch clamp (α1G); assay type: cell-based; conditions: HEK cells stably expressing human α1G; mainly non-inactivated protocol; values above 10 μM represented as 10 μM, values below 0.30 μM represented as 0.30 μM
T1 construct: expressed in transfected cells; host or cells: HEK 293
Method in brief: (§1)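 Whole-cell patch clamp was run on HEK293 cells stably expressing human α1G or α1H. Cells were held at −110 mV and given a 1 s pre-pulse to −100 mV (non-inactivating protocol) before a 50 ms test pulse to −40 mV. Compounds were applied by gravity in external solution with 0.1-0.01% DMSO, and IC50 values are in μM, capped at 10 μM.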

[2] = target: T2, human α1H T-type channels (Homo sapiens, UniProt O95180); experiment: T-type calcium channel block, whole cell patch clamp (α1H); assay type: cell-based; conditions: HEK cells stably expressing human α1H; mainly non-inactivated protocol; values above 10 μM represented as 10 μM
T2 construct: expressed in transfected cells; host or cells: HEK 293
Method in brief: as §1

T1 sequence (O43497 whole entry): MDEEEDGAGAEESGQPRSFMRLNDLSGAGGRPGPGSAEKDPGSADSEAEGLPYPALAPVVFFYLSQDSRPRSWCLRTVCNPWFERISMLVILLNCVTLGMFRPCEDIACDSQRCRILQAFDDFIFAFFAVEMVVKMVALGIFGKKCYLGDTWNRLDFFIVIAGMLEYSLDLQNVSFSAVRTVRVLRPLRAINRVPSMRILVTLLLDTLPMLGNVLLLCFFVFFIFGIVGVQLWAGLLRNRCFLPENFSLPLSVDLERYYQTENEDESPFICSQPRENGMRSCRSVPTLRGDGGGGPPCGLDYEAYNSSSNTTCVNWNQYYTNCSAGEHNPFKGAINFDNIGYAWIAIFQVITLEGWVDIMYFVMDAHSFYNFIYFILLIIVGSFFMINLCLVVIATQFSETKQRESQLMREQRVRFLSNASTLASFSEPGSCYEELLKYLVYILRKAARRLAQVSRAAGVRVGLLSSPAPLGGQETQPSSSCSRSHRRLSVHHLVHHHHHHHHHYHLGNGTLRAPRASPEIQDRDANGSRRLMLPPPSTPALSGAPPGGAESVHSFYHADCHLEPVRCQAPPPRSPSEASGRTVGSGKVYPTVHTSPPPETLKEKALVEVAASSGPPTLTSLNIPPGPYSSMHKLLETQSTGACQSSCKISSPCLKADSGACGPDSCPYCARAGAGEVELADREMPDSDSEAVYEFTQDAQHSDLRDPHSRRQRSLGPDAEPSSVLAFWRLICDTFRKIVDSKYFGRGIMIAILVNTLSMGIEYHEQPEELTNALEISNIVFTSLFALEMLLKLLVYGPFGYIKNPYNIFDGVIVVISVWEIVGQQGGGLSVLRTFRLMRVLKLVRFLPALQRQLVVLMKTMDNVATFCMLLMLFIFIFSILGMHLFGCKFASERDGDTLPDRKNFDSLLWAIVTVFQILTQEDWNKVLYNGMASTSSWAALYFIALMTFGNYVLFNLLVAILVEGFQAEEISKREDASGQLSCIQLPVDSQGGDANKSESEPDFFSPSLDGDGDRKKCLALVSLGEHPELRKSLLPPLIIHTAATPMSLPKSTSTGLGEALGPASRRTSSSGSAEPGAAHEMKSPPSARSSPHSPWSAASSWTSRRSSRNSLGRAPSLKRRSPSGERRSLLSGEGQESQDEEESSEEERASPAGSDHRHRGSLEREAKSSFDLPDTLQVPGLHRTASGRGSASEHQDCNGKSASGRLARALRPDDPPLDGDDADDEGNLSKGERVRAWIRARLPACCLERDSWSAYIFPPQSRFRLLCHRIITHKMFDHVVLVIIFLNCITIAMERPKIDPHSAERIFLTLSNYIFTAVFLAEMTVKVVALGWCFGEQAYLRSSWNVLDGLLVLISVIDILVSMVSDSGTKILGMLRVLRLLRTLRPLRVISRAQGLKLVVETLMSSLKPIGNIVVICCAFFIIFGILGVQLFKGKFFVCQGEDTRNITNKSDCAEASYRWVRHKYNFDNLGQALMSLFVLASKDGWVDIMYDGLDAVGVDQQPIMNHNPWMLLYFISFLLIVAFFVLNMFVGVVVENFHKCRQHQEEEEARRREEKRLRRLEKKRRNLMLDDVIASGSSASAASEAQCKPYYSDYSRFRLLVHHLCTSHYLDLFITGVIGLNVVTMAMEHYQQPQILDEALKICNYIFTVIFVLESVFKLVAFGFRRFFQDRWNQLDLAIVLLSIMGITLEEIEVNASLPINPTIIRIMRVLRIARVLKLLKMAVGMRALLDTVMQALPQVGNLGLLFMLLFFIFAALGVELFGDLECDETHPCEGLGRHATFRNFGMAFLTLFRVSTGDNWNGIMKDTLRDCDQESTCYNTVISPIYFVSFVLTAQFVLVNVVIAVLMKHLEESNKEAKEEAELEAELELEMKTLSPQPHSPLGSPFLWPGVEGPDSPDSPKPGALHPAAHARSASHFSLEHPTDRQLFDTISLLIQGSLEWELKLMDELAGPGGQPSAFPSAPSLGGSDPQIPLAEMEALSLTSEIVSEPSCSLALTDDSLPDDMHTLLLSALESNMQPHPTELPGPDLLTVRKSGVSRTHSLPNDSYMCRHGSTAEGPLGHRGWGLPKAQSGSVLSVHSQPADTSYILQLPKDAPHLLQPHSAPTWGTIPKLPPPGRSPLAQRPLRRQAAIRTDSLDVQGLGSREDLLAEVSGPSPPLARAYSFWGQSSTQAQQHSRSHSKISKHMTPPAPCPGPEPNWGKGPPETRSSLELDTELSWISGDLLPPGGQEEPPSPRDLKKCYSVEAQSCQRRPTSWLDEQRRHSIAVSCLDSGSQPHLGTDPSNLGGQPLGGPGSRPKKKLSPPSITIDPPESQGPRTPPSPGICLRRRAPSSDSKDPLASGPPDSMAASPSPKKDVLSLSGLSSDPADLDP
T2 sequence (O95180 whole entry): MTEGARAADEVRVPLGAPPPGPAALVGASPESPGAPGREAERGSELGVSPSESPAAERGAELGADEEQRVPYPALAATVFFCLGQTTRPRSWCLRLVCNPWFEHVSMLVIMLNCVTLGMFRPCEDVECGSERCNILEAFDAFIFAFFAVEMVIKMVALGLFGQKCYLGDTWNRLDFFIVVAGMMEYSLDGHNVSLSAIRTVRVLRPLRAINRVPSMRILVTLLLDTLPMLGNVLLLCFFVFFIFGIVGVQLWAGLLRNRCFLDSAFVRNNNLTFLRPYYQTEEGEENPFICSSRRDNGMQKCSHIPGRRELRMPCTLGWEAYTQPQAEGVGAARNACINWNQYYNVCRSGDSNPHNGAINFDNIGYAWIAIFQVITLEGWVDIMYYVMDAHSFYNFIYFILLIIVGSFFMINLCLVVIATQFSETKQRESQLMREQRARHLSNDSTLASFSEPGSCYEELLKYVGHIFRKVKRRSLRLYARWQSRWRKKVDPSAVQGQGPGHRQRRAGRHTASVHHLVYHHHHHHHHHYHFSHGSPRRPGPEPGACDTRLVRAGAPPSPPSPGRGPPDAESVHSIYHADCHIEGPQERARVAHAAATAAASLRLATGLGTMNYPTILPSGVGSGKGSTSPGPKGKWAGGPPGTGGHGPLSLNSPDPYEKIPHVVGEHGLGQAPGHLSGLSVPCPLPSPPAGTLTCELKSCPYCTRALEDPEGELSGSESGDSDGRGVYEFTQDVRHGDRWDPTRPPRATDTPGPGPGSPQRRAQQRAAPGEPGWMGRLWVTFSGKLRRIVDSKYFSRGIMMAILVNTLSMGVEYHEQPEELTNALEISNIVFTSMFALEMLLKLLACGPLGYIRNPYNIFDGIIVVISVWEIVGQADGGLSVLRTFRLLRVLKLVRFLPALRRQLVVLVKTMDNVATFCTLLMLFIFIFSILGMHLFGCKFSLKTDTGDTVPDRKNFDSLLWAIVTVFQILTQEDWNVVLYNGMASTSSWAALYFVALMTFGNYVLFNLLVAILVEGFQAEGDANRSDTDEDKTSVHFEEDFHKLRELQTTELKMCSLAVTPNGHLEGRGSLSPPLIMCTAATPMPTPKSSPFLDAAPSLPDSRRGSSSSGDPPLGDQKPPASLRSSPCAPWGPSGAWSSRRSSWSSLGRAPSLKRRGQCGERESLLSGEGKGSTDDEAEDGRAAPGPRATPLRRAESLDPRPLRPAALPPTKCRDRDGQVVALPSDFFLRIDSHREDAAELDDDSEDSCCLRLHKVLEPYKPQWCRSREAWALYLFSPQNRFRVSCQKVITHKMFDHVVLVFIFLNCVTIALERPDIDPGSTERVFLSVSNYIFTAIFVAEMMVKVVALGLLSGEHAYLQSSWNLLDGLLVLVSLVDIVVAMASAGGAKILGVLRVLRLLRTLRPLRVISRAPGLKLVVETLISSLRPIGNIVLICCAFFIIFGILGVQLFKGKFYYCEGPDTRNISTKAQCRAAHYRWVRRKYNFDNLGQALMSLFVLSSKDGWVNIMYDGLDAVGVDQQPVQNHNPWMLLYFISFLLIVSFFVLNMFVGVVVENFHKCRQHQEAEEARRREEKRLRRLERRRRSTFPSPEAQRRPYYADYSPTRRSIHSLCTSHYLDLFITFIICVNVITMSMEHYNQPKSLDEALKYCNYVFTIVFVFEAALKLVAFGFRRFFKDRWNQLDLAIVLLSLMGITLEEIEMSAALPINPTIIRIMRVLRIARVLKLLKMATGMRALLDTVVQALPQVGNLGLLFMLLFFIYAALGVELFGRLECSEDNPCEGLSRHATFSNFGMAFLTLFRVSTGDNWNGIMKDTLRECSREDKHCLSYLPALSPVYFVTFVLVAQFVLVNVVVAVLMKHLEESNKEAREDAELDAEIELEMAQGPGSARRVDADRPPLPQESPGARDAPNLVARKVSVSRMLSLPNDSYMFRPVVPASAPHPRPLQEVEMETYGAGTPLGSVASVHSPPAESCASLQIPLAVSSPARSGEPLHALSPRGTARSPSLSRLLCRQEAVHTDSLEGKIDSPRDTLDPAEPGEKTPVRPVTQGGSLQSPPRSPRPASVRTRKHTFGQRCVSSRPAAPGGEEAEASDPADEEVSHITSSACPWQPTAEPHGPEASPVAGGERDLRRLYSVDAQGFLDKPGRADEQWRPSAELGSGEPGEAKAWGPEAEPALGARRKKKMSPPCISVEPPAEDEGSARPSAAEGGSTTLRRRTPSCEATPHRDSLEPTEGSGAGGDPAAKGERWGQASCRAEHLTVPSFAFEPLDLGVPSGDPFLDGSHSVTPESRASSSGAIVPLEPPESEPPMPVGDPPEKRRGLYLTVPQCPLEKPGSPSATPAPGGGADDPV

Row | SMILES | IC50 [1] | IC50 [2]
1 | O=C(NC[C@H]1CC[C@H](NCC(=O)N2CCC(F)(F)C2)CC1)c1cc(C(F)(F)F)cc(C(F)(F)F)c1 [Compound 61, N-((trans-4-(2-(3,3-difluoropyrrolidin-1-yl)-2-oxoethylamino)cyclohexyl)methyl)-3,5-bis(trifluoromethyl)benzamide] | 1590 nM | 1730 nM
2 | COC1CCC(N(C)C(=O)CN[C@H]2CC[C@H](CNC(=O)c3cc(C(F)(F)F)cc(C(F)(F)F)c3)CC2)CC1 (stereo partly drawn) [Compound 65, N-((trans-4-(2-((4-methoxycyclohexyl)(methyl)amino)-2-oxoethylamino)cyclohexyl)methyl)-3,5-bis(trifluoromethyl)benzamide] | 8020 nM | 7360 nM
3 | CC(C)(C)c1nc(CN[C@H]2CC[C@H](CNC(=O)c3cc(C(F)(F)F)cc(C(F)(F)F)c3)CC2)no1 [Compound 66, N-((trans-4-((5-tert-butyl-1,2,4-oxadiazol-3-yl)methylamino)cyclohexyl)methyl)-3,5-bis(trifluoromethyl)benzamide] | 1340 nM | 3050 nM
4 | Cc1cc(CN[C@H]2CC[C@H](CNC(=O)c3cc(C(F)(F)F)cc(C(F)(F)F)c3)CC2)no1 [Compound 67, N-((trans-4-((5-methylisoxazol-3-yl)methylamino)cyclohexyl)methyl)-3,5-bis(trifluoromethyl)benzamide] | 5590 nM | 2890 nM
5 | CCC1CCCN1C(=O)CN[C@H]1CC[C@H](CNC(=O)c2cc(C(F)(F)F)cc(C(F)(F)F)c2)CC1 (stereo partly drawn) [Compound 68, N-((trans-4-(2-(2-ethylpyrrolidin-1-yl)-2-oxoethylamino)cyclohexyl)methyl)-3,5-bis(trifluoromethyl)benzamide] | ≤ 300 nM | 560 nM
6 | CC(C)CNC(=O)CN[C@H]1CC[C@@H](CNC(=O)c2cc(C(F)(F)F)cc(C(F)(F)F)c2)CC1 [Compound 70, N-((cis-4-(2-(isobutylamino)-2-oxoethylamino)cyclohexyl)methyl)-3,5-bis(trifluoromethyl)benzamide] | 330 nM | 210 nM
7 | CCC(C)NC(=O)CN[C@H]1CC[C@@H](CNC(=O)c2cc(C(F)(F)F)cc(C(F)(F)F)c2)CC1 (stereo partly drawn) [Compound 71, N-((cis-4-(2-(sec-butylamino)-2-oxoethylamino)cyclohexyl)methyl)-3,5-bis(trifluoromethyl)benzamide] | ≤ 300 nM | 270 nM
8 | Cc1ccc(NC(=O)CN[C@H]2CC[C@@H](CNC(=O)c3cc(C(F)(F)F)cc(C(F)(F)F)c3)CC2)nc1 [Compound 73, N-((cis-4-(2-(5-methylpyridin-2-ylamino)-2-oxoethylamino)cyclohexyl)methyl)-3,5-bis(trifluoromethyl)benzamide] | 310 nM | 700 nM
9 | CC1CCCCN1C(=O)CN[C@H]1CC[C@H](CNC(=O)c2cc(C(F)(F)F)cc(C(F)(F)F)c2)CC1 (stereo partly drawn) [Compound 76, N-((trans-4-(2-(2-methylpiperidin-1-yl)-2-oxoethylamino)cyclohexyl)methyl)-3,5-bis(trifluoromethyl)benzamide] | ≤ 300 nM | 615 nM
10 | CC(C)(C)c1nc(CNC[C@H]2CC[C@H](NC(=O)c3cc(C(F)(F)F)cc(C(F)(F)F)c3)CC2)no1 [Compound 89, N-(trans-4-(((5-tert-butyl-1,2,4-oxadiazol-3-yl)methylamino)methyl)cyclohexyl)-3,5-bis(trifluoromethyl)benzamide] | 1370 nM | 1950 nM
11 | CC(C)CNC(=O)CNC[C@H]1CC[C@H](NC(=O)c2cc(C(F)(F)F)cc(C(F)(F)F)c2)CC1 [Compound 93, N-(trans-4-((2-(isobutylamino)-2-oxoethylamino)methyl)cyclohexyl)-3,5-bis(trifluoromethyl)benzamide] | 1380 nM | 1710 nM
12 | O=C(CNC[C@H]1CC[C@H](NC(=O)c2cc(C(F)(F)F)cc(C(F)(F)F)c2)CC1)Nc1ccccn1 [Compound 96, N-(trans-4-((2-oxo-2-(pyridin-2-ylamino)ethylamino)methyl)cyclohexyl)-3,5-bis(trifluoromethyl)benzamide] | 540 nM | 1040 nM
13 | CC(C)(C)OC(=O)NCCN[C@H]1CC[C@@H](CNC(=O)c2cc(C(F)(F)F)cc(C(F)(F)F)c2)CC1 [Compound 98, tert-butyl 2-(cis-4-((3,5-bis(trifluoromethyl)benzamido)methyl)cyclohexylamino)ethylcarbamate] | 410 nM | 780 nM
14 | COc1cc(C(=O)NC[C@H]2CC[C@@H](NCCNC(=O)OC(C)(C)C)CC2)cc(C(F)(F)F)c1 [Compound 100, tert-butyl 2-(cis-4-((3-methoxy-5-(trifluoromethyl)benzamido)methyl)cyclohexylamino)ethylcarbamate] | 1030 nM | 850 nM
15 | CC(C)(C)CC(=O)NCCN[C@H]1CC[C@H](CNC(=O)c2cc(C(F)(F)F)cc(C(F)(F)F)c2)CC1 [Compound 101, N-((trans-4-(2-(3,3-dimethylbutanamido)ethylamino)cyclohexyl)methyl)-3,5-bis(trifluoromethyl)benzamide] | 1510 nM | 2050 nM
16 | O=C(CCC(F)(F)F)NCCN[C@H]1CC[C@H](CNC(=O)c2cc(C(F)(F)F)cc(C(F)(F)F)c2)CC1 [Compound 102, N-((trans-4-(2-(4,4,4-trifluorobutanamido)ethylamino)cyclohexyl)methyl)-3,5-bis(trifluoromethyl)benzamide] | 970 nM | 1810 nM
17 | O=C(C[C@H]1CC[C@@H](NC(=O)[C@@H]2C[C@@H](c3ccccc3)CN2)CC1)NCc1cccc(OC(F)(F)F)c1 [Compound 116, (2S,4S)-N-(cis-4-(2-oxo-2-(3-(trifluoromethoxy)benzylamino)ethyl)cyclohexyl)-4-phenylpyrrolidine-2-carboxamide] | 2890 nM | ≥ 10000 nM
18 | NC1(C(=O)N[C@H]2CC[C@H](CC(=O)Nc3cc(C(F)(F)F)cc(C(F)(F)F)c3)CC2)CCCCC1 [Compound 117, 1-amino-N-(trans-4-(2-(3,5-bis(trifluoromethyl)phenylamino)-2-oxoethyl)cyclohexyl)cyclohexanecarboxamide] | 1070 nM | ≥ 10000 nM

Further lines, results first:

Row | IC50 [1] | IC50 [2] | SMILES
19 | ≤ 300 nM | 310 nM | C#CC(CC)(CC)NC(=O)CN[C@H]1CC[C@H](CNC(=O)c2cc(C(F)(F)F)cc(C(F)(F)F)c2)CC1 [Compound 62, N-((trans-4-(2-(3-ethylpent-1-yn-3-ylamino)-2-oxoethylamino)cyclohexyl)methyl)-3,5-bis(trifluoromethyl)benzamide]
20 | ≤ 300 nM | 230 nM | CC1CCCCN1C(=O)CN[C@H]1CC[C@@H](CNC(=O)c2cc(C(F)(F)F)cc(C(F)(F)F)c2)CC1 (stereo partly drawn) [Compound 72, N-((cis-4-(2-(2-methylpiperidin-1-yl)-2-oxoethylamino)cyclohexyl)methyl)-3,5-bis(trifluoromethyl)benzamide]
21 | 2350 nM | 650 nM | CC(C)NC(=O)CN[C@H]1CC[C@H](CNC(=O)c2cc(C(F)(F)F)cc(C(F)(F)F)c2)CC1 [Compound 74, N-((trans-4-(2-(isopropylamino)-2-oxoethylamino)cyclohexyl)methyl)-3,5-bis(trifluoromethyl)benzamide]
22 | 810 nM | 430 nM | CC(C)CNC(=O)CN[C@H]1CC[C@H](CNC(=O)c2cc(C(F)(F)F)cc(C(F)(F)F)c2)CC1 [Compound 75, N-((trans-4-(2-(isobutylamino)-2-oxoethylamino)cyclohexyl)methyl)-3,5-bis(trifluoromethyl)benzamide]
23 | 730 nM | 1140 nM | Cc1ccc(NC(=O)CN[C@H]2CC[C@H](CNC(=O)c3cc(C(F)(F)F)cc(C(F)(F)F)c3)CC2)nc1 [Compound 77, N-((trans-4-(2-(5-methylpyridin-2-ylamino)-2-oxoethylamino)cyclohexyl)methyl)-3,5-bis(trifluoromethyl)benzamide]
24 | 2540 nM | 2090 nM | O=C(CNC[C@H]1CC[C@H](NC(=O)c2cc(C(F)(F)F)cc(C(F)(F)F)c2)CC1)NCC(F)(F)F [Compound 82, N-(trans-4-((2-oxo-2-(2,2,2-trifluoroethylamino)ethylamino)methyl)cyclohexyl)-3,5-bis(trifluoromethyl)benzamide]
25 | 3470 nM | 3860 nM | Cc1cc(CNC[C@H]2CC[C@H](NC(=O)c3cc(C(F)(F)F)cc(C(F)(F)F)c3)CC2)no1 [Compound 90, N-(trans-4-(((5-methylisoxazol-3-yl)methylamino)methyl)cyclohexyl)-3,5-bis(trifluoromethyl)benzamide]
26 | 900 nM | 900 nM | CC(C)(C)OC(=O)NCCN[C@H]1CC[C@@H](CNC(=O)c2cc(F)cc(C(F)(F)F)c2)CC1 [Compound 97, tert-butyl 2-(cis-4-((3-fluoro-5-(trifluoromethyl)benzamido)methyl)cyclohexylamino)ethylcarbamate]
27 | 650 nM | 6070 nM | CC(C)(C)OC(=O)N[C@H]1CC[C@@H](CC(=O)Nc2cc(C(F)(F)F)cc(C(F)(F)F)c2)CC1 [Compound 105, tert-butyl cis-4-(2-(3,5-bis(trifluoromethyl)phenylamino)-2-oxoethyl)cyclohexylcarbamate]
28 | 880 nM | 1530 nM | O=C(C[C@H]1CC[C@H](NC(=O)[C@@H]2CCCN2)CC1)Nc1cc(C(F)(F)F)cc(C(F)(F)F)c1 [Compound 119, (S)-N-(trans-4-(2-(3,5-bis(trifluoromethyl)phenylamino)-2-oxoethyl)cyclohexyl)pyrrolidine-2-carboxamide]
